Laboratory results from patent publication US20070167488A1, “Novel therapeutic use” (Leo Pharma A/S, priority 2003, published 2007).
Marks after values point to notes of the source that are not given here.

What was measured:
[1] = test system: EAE induced in SJL/J mice with a peptide from myelin proteolipid protein (PLP139-153); assay: EAE model in SJL/J mice immunized with PLP139-153 peptide; format: in vivo, mouse; settings: for Inhibition of EAE compared with the suspension vehicle group (in words): SJL/J mice, PLP139-153, doses as in tables 1 and 3; for inhibition of EAE: another experiment (data not shown)
IL-2 = assay: Inhibition of IL-2 production in phytohemagglutinin-activated human PBMCs (sandwich ELISA); format: cell-based; settings: approximately 46 hours; for IC50: Homo sapiens, PBMC, 46 h, read-out: IL-2 pIC50 (converted)
Method: Peripheral blood mononuclear cells (PBMCs) were isolated from human blood. The lymphocytes, a fraction of the PBMCs, were activated to secrete IL-2 using the polyclonal mitogen phytohemagglutinin. The test compounds were added in concentrations from 10^−5 to 10^−10, and the cells (10^6/ml) were incubated in microtiter wells at 37° C. for approximately 46 hours.
After 46 hours the cells were centrifuged down for 25 minutes at 1000×g and the supernatants were transferred to transferred to microtiter wells precoated with a monoclonal antibody against human IL-2. The IL-2 concentration in the supernatants was determined by a sandwich ELISA. Microtiter plates were coated (1 μg/ml) with a monoclonal antibody (R&D, UK) against human IL-2, washed 4 times, blocked with 1% casein buffer for 2 hours and washed 2 times. 100 μl sample was added to each well and incubated overnight. All samples were tested in triplicate. 100 μl IL-2 standards (R&D, UK) at a concentration range of 10000-0 pg/ml were tested in triplicate. After incubation the plates were washed and incubated with biotinylated polyclonal secondary antibody against human IL-2 (R&D, UK) for 45 minutes and thereafter washed 4 times. 100 μl enzyme conjugate, horseradish peroxidase conjugated streptavidin diluted 1:4000 (Zymed, USA), was added to all wells and incubated for 30 minutes. 100 μl OPD substrate (KEM EN TEC-DK) was added and the enzyme/substrate reaction stopped after 10 minutes at room temperature with 50 μl 1 M H2SO4. The colour development (optical density—OD) was determined at 492 nm on an ELISA reader and the background OD at 620 nm subtracted).

[2] = Table 4, 50 mg/kg daily, treatment as in example 4
[3] = Table 7, 50 mg/kg p.o., suspension vehicle adjusted to pH 4 by addition of aqueous HCl
[4] = Exp. 2, terminated day 21, 5 mg/kg i.p. daily
[5] = Exp. 2, terminated day 21, 10 mg/kg i.p. daily
[6] = Exp. 1, terminated day 21, 50 mg/kg i.p. daily
[7] = Exp. 4, terminated day 35, 200 mg/kg p.o. daily
[8] = Table 3, experiment with vehicle AUC 42.75, day 0-21, 50 mg/kg i.p. daily
[9] = Table 7, 50 mg/kg p.o., suspension vehicle

Row | IC50 (IL-2) [nM] | Structure (SMILES) | Inhibition (%) of EAE (area-under-curve of the disease score) [1, 2] [%] | other results
1 |  | Cc1cc(C)c(/C=C2\C(=O)N(O)c3ccccc32)[nH]1 [Compound 45, 3-(3,5-dimethyl-1H-pyrrol-2-ylmethylene)-1-hydroxy-1,3-dihydro-indol-2-one] | 67 | 
2 |  | Cc1[nH]c2ccccc2c1/C=C1/C(=O)Nc2ccccc21 [Compound 75, 3-(2-methyl-1H-indol-3-ylmethylene)-1,3-dihydro-indol-2-one] | 63 | 
3 |  | COc1ccc(OC)c(/C=C2/C(=O)Nc3ccc(F)cc32)c1 [Compound 211, 3-(2,5-dimethoxy-benzylidene)-5-fluoro-1,3-dihydro-indol-2-one] |  | Inhibition (%) of EAE (area-under-curve of the disease score) [1, 3]: 37** %
4 |  | COc1cccc(C=C2C(=O)Nc3ccccc32)c1 (racemic) [Compound 153, 3-(3-methoxy-benzylidene)-1,3-dihydro-indol-2-one] | 38 | 
5 |  | CO[C@@H]1[C@H](OC(=O)NC(=O)CCl)CC[C@]2(CO2)[C@H]1[C@@]1(C)O[C@@H]1CC=C(C)C [Compound B, reference compound] |  | AUC (mean) of the disease score [1, 4]: 19.0; inhibition (%) [1, 4]: 25%; AUC (mean) of the disease score [1, 5]: 19.3; inhibition (%) [1, 5]: 24%; Inhibition of EAE compared with the suspension vehicle group (in words) [1]: no significant inhibition
6 |  | Cc1ccc(C)c(/C=C2/C(=O)Nc3ccccc32)c1 [Compound 104, 3-(2,5-dimethyl-benzylidene)-1,3-dihydro-indol-2-one] | 71 | 
7 |  | COc1ccc(OC)c(/C=C2/C(=O)Nc3cc(Br)ccc32)c1 [Compound 171, 6-bromo-3-(2,5-dimethoxy-benzylidene)-1,3-dihydro-indol-2-one] | 40 | 
8 |  | Cc1cc(CO)[nH]c1/C=C1\C(=O)Nc2ccccc21 [Compound 03, 3-(5-hydroxymethyl-3-methyl-1H-pyrrol-2-ylmethylene)-1,3-dihydro-indol-2-one] | 57 | 
9 |  | Cc1[nH]c(C=C2C(=O)Nc3ccccc32)c(C)c1CCC(=O)O [Compound A, 3-[2,4-dimethyl-5-(oxo-1,2-dihydroindol-3-ylidenemethyl)-1H-pyrrol-3-yl]-propionic acid, reference compound] |  | AUC (mean) of the disease score [1, 6]: 23.4; inhibition (%) [1, 6]: −36%; AUC (mean) of the disease score [1, 7]: 55.5; inhibition (%) [1, 7]: 11%; Inhibition of EAE compared with the suspension vehicle group (in words) [1]: no significant inhibition
10 |  | COc1ccc(OC)c(/C=C2/C(=O)Nc3ccccc32)c1 [Compound 110, 3-(2,5-dimethoxy-benzylidene)-1,3-dihydro-indol-2-one] |  | Inhibition of EAE compared with the suspension vehicle group (in words) [1]: clear and significant inhibition; AUC (mean) of the disease score [1, 8]: 12.15; inhibition (%) [1, 8]: 72%; Inhibition (%) of EAE (area-under-curve of the disease score) [1, 9]: 47%; Inhibition (%) of EAE (area-under-curve of the disease score) [1, 3]: 67** %; inhibition of EAE ([1]; 50 mg/kg, highest dose): 90%; inhibition of EAE ([1]; lowest dose (significant at 50, 25 and 10 mg/kg; 4 mg/kg also given)): 42%
11 |  | Cc1cc(C(=O)NCCO)[nH]c1/C=C1\C(=O)Nc2ccccc21 [Compound 02, 4-methyl-5-(2-oxo-1,2-dihydro-indol-3-ylidenemethyl)-1H-pyrrole-2-carboxylic acid (2-hydroxy-ethyl)-amide] | 41 | 
12 |  | Cc1[nH]c(/C=C2\C(=O)Nc3ccccc32)c(C)c1Br [Compound 22, 3-(4-bromo-3,5-dimethyl-1H-pyrrol-2-ylmethylene)-1,3-dihydro-indol-2-one] | 78 | 
13 |  | CCN(CC)CCNC(=O)c1c(C)[nH]c(/C=C2\C(=O)Nc3ccccc32)c1C [Compound 227, 2,4-dimethyl-5-(2-oxo-1,2-dihydro-indol-3-ylidenemethyl)-1H-pyrrole-3-carboxylic acid (2-diethylamino-ethyl)-amide] | 49 | 
14 |  | O=C(O)Cn1cc(/C=C2\C(=O)Nc3ccccc32)c2ccccc21 [Compound 26, [3-(2-oxo-1,2-dihydro-indol-3-ylidenemethyl)-indol-1-yl]-acetic acid] | 34 | 
15 |  | CC(=O)ON1C(=O)/C(=C\c2[nH]c(C)cc2C)c2ccccc21 [Compound 51, acetic acid 3-(3,5-dimethyl-1H-pyrrol-2-ylmethylene)-2-oxo-2,3-dihydro-indol-1-yl ester] | 48 | 
16 |  | COc1ccc(CN(C)C)cc1/C=C1/C(=O)Nc2ccccc21 [Compound 32, 3-(5-dimethylaminomethyl-2-methoxy-benzylidene)-1,3-dihydro-indol-2-one] |  | Inhibition (%) of EAE (area-under-curve of the disease score) [1, 9]: 40%
17 |  | CCCn1cc(/C=C2\C(=O)Nc3ccccc32)c2ccccc21 [Compound 31, 3-(1-propyl-1H-indol-3-ylmethylene)-1,3-dihydro-indol-2-one] | 60 | 
18 |  | O=C1Nc2ccccc2C1=Cc1cc(Cl)ccc1Cl (racemic) [Compound 193, 3-(2,5-dichloro-benzylidene)-1,3-dihydro-indol-2-one] | 37 | 
19 |  | CCN(CC)CCNC(=O)c1c(C)[nH]c(/C=C2\C(=O)Nc3ccc(F)cc32)c1C [Compound 228, 5-(5-fluoro-2-oxo-1,2-dihydro-indol-3-ylidenemethyl)-2,4-dimethyl-1H-pyrrole-3-carboxylic acid (2-diethylamino-ethyl)-amide] | 43 | 

Row | IC50 (IL-2) [nM] | Structure (SMILES) | Inhibition (%) of EAE (area-under-curve of the disease score) [1, 2] [%] | other results
20 |  | Cc1cc(C)c(/C(C(=O)O)=C2\C(=O)Nc3ccccc32)[nH]1 [Compound 229, (3,5-dimethyl-1H-pyrrol-2-yl)-(2-oxo-1,2-dihydro-indol-3-ylidene)-acetic acid] | 59 | 
21 |  | CCOC(=O)c1cc(C)c(/C=C2\C(=O)Nc3ccccc32)[nH]1 [Compound 01, 4-methyl-5-(2-oxo-1,2-dihydro-indol-3-ylidenemethyl)-1H-pyrrole-2-carboxylic acid ethyl ester] | 44 | 
22 | 794 | COc1cc(/C=C2/C(=O)Nc3ccccc32)c(OCc2ccccc2)cc1OC |  | 
23 | 20 | COc1ccc(OC)c(/C=C2/C(=O)Nc3ccc(F)c(F)c32)c1 |  | 
24 | 6.31 | O=C1Nc2ccccc2/C1=C\c1ccc2cc[nH]c2c1 |  | 
25 | 1 | Cc1[nH]c(/C=C2\C(=O)Nc3ccccc32)c(C)c1Cl |  | 
26 | 31.6 | O=C1Nc2ccccc2/C1=C\c1cc(Br)co1 |  | 
27 | 10 | COc1ccc(OC)c(/C=C2/C(=O)Nc3c(Br)cccc32)c1 |  | 
28 |  | COc1ccc(OC)c(/C=C2/C(=O)Nc3ccc(N)cc32)c1 |  | IL-2 pIC50 (IL-2): 6.5
29 | 316 | O=C1Nc2ccccc2/C1=C\c1ccc(O)cc1O |  | 
30 | 20 | Cc1cc(C(=O)NCC2CCCO2)[nH]c1/C=C1\C(=O)Nc2ccccc21 (stereo not shown) |  | 
31 | 398 | O=C1Nc2ccccc2/C1=C\c1cc(Cl)cc(Cl)c1O |  | 
32 | 200 | O=C1Nc2ccccc2/C1=C/c1ccc(Cl)cc1Cl |  | 
33 | 10 | COc1ccc(OC)c(/C=C2/C(=O)Nc3cc(C(F)(F)F)ccc32)c1 |  | 
34 | 200 | Cc1cc(C(=O)O)[nH]c1/C=C1\C(=O)Nc2ccccc21 |  | 
35 | 2 | Cn1cc(/C=C2\C(=O)Nc3ccccc32)c2ccccc21 |  | 
36 | 1 | O=C1Nc2ccccc2/C1=C/c1c[nH]c2cc(F)ccc12 |  | 
37 | 31.6 | Cc1cc(C(=O)NCC2CCCCC2)[nH]c1/C=C1\C(=O)Nc2ccccc21 |  | 
38 | 10 | COc1ccc(OC)c(/C=C2/C(=O)Nc3cc(F)ccc32)c1 |  | 
